IC50 data for 4 molecules are collected here from patent publication US10906905B2, “Five-membered heteroaryl ring bridged ring derivative, preparation method therefor and medical use thereof” (Jiangsu Hengrui Medicine Co., Ltd., priority 2016, dated 2021).

Experiment [1] deals with TGFβRI kinase ALK5 (Homo sapiens (Human), UniProt P36897). In words: Inhibition of TGFβRI kinase ALK5 activity (TGFβRI kinase assay kit, ADP-Glo). It is filed as biochemical. To be noted: ATP 50 μM; read-out: IC50 of inhibition effect on TGFβRI kinase ALK5 activity. The procedure, abridged:
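Kinase reaction: 2 ng/μL enzyme in Tris pH 7.5, MgCl2, BSA buffer with 50 μM ATP and 0.2 μg/μL substrate peptide, 2.5 h at 27 °C. ADP formation read by ADP-Glo luminescence over 3-fold compound dilutions; IC50 calculated from signal versus concentration.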

The subject of experiment [2] is Smad signaling pathway of TGFβRI. Kind of experiment: Inhibition of Smad signaling pathway of TGFβRI (3TP-lux luciferase reporter in HepG2 cell). The format is cell-based. To be noted: Homo sapiens; HepG2 cell, 3TP-lux plasmid, 18 hours; read-out: IC50 on the inhibition of Smad signaling pathway of TGFβRI.
Experiment [3] deals with p38α kinase (Homo sapiens (Human), UniProt Q16539). In words: Inhibition of p38α kinase activity (p38α kinase assay kit, ADP-Glo). The format is biochemical. To be noted: ATP 50 μM; read-out: IC50 of inhibition effect on p38α kinase activity. The method, then:
The inhibition of p38α kinase activity in vitro was determined by the following method.
The inhibition effect of the compounds of the present invention on p38a kinase activity was determined by the following experimental method:
p38α kinase assay kit (V9591, Promega) was used to assay enzyme activity. 2 μl of enzyme solution (the final concentration of enzyme in the reaction system was 0.5 ng/μL) formulated with reaction buffer (40 mM Tris pH 7.5, 20 mM MgCl2, 0.1 mg/ml BSA), 1 μl of a 3-fold gradient dilution of the compounds dissolved in 5% DMSO, and 2 μl of a mixed solution of ATP and p38 substrate peptide (the final concentration of ATP was 50 μM, and the final concentration of substrate was 0.2 μg/μL) were added successively to a 384-well plate (4514, Corning). After reaction at 27° C. for 2.5 hours, 5 μl of ADP-Glo solution in the kit was added to each well, then the plate was placed at 27° C. for 40 minutes. 10 μl of kinase assay reagent was then added to each well, then the plate was placed at 27° C. for 30 minutes. The chemiluminescence signal values were measured with a Victor 3 (PerkinElmer) multi-function microplate reader. The IC50 values of the compounds on enzyme inhibition were calculated using Graphpad prism software based on each concentration of the compound and the corresponding signal value thereof.

Molecules are shown by their SMILES.

Sequence of TGFβRI kinase ALK5 (P36897 34-503): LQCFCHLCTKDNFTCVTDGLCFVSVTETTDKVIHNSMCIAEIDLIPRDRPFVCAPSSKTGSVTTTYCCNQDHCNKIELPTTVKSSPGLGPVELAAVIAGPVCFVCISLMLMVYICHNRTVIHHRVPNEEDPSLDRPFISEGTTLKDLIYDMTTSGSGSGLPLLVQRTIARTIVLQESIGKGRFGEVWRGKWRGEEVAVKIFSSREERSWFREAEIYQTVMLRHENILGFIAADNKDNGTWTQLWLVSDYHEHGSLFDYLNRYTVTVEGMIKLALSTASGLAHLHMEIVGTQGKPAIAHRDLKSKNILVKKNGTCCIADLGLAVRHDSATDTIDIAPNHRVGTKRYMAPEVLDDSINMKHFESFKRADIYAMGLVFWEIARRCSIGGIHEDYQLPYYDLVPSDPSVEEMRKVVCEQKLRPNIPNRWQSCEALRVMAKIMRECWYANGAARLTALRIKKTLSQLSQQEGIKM
Sequence of p38α kinase (Q16539 whole entry): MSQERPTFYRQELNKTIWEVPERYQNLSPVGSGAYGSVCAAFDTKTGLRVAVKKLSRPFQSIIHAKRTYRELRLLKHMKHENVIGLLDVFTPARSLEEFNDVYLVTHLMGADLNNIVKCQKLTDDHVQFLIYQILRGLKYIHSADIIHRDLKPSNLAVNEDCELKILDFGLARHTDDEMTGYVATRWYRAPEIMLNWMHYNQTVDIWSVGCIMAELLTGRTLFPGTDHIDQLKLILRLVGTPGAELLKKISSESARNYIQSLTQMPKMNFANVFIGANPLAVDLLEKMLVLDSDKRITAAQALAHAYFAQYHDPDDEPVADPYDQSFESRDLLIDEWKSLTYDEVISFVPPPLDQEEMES

For `Cc1cccc(-c2nc3n(c2-c2ccnc(-c4ccc(S(C)(=O)=O)cc4)c2)[C@H]2CC[C@@H]3C2)n1` [Example 3-1, (5S,8R)-2-(6-Methylpyridin-2-yl)-3-(2-(4-(methylsulfonyl)phenyl)pyridin-4-yl)-5,6,7,8-tetrahydro-5,8-methanoimidazo[1,2-a]pyridine], the IC50 (usually the point on the concentration scale where inhibition reaches its midpoint) in experiment [1] amounted to 4 nM; in experiment [2], 19 nM; in experiment [3] it was 686 nM.

`Cc1cccc(-c2nc3n(c2-c2ccc4nnc(C(N)=O)n4c2)[C@H]2CC[C@@H]3C2)n1` [Example 2-1, 6-((5S,8R)-2-(6-Methylpyridin-2-yl)-5,6,7,8-tetrahydro-5,8-methanoimidazo[1,2-a]pyridin-3-yl)[1,2,4]triazolo[4,3-a]pyridine-3-carboxamide]: the values for the IC50 in experiment [1], in experiment [2] and in experiment [3] were 3 nM, 21 nM and 1710 nM, respectively.

`NC(=O)c1ccnc2ccc(-c3c(-c4ccc(F)cn4)nc4n3[C@H]3CC[C@@H]4C3)cc12` [Example 39-1, 6-((5S,8R)-2-(5-Fluoropyridin-2-yl)-5,6,7,8-tetrahydro-5,8-methanoimidazo[1,2-a]pyridin-3-yl)quinoline-4-carboxamide]: the IC50 in experiment [1] was found to be 26 nM; in experiment [2], 24 nM; in experiment [3], 4730 nM.

In the case of `Cc1cccc(-c2nc3n(c2-c2ccc4nccc(C(N)=O)c4c2)[C@H]2CC[C@@H]3C2)n1` [Example 1-1, 6-((5S,8R)-2-(6-Methylpyridin-2-yl)-5,6,7,8-tetrahydro-5,8-methanoimidazo[1,2-a]pyridin-3-yl)quinoline-4-carboxamide], the IC50 was 9 nM in experiment [1], 36 nM in experiment [2] and 618 nM in experiment [3].
